Results taken from ChEMBL document CHEMBL5678795 (Eur J Pharmacol, 1999).
Activity calls are given as the source filed them. No cut-off for these calls is given here.

Legend:
[1] = biological target: 5-hydroxytryptamine receptor 7 (Homo sapiens) (UniProt P34969); assay: Displacement of [3H]LSD from human recombinant 5-Hydroxytryptamine 7 at 10 uM incubated for 120 mins by radiometric based scintillation counter assay relative to control
[2] = biological target: Substance-P receptor (Homo sapiens) (UniProt P25103); assay: Displacement of [125I]-Substance P LYS3 from human Neurokinin-1 receptor at 10 uM incubated for 30 mins by radiometric based scintillation counter assay relative to control
Mus musculus = organism: Mus musculus; assay: Displacement of [125I]PDGF BB from mouse platlet-derived growth factor receptor at 10 uM incubated for 180 mins by radiometric based scintillation counter assay relative to control
[3] = biological target: Prostacyclin receptor (Homo sapiens) (UniProt P43119); assay: Displacement of [3H]iloprost from human recombinant Prostaglandin I2 receptor at 10 uM incubated for 60 mins by radiometric based scintillation counter assay relative to control
Endothelin-1 receptor [4] = biological target: T1, Endothelin-1 receptor (Rattus norvegicus, UniProt P26684); assay: Antagonist activity to ETA receptor in Sprague-Dawley rat aorta assessed as induction of vessel ring contraction preincubated for 15 mins; assay type: functional, tissue-based; conditions: read-out: pA2 (converted)
T1 sequence (P26684 whole entry): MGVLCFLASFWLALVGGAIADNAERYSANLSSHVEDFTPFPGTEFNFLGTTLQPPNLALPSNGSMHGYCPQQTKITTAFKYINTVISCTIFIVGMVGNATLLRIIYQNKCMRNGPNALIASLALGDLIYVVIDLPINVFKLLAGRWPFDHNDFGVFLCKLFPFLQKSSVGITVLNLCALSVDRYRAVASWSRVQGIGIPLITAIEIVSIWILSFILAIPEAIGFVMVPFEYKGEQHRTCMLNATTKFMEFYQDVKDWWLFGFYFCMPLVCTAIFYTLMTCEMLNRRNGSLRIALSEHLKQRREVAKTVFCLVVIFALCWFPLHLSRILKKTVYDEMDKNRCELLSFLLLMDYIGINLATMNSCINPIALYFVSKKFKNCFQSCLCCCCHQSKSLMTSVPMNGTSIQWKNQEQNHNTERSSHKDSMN

Rattus norvegicus = organism: Rattus norvegicus; assay: Displacement of [3H]RX 821002 from rat brain […] at 10 uM incubated for 60 mins by radiometric based scintillation counter assay relative to control; assay type: tissue-based
[5] = biological target: D(4) dopamine receptor (Homo sapiens) (UniProt P21917); assay: Displacement of [3H]methyl-spiperone from human recombinant dopamine D4 receptor at 10 uM incubated for 60 mins by radiometric based scintillation counter assay relative to control
[6] = biological target: T2, Endothelin receptor type B (Homo sapiens, UniProt P24530); assay: Displacement of [125I]endhothelin-3 from human ETB receptor stably expressed in CHO cells Membrane assessed as inhibition constant at 25 degC incubated for 4 hrs by saturation binding assay; assay type: cell membranes
T2 sequence (P24530 whole entry): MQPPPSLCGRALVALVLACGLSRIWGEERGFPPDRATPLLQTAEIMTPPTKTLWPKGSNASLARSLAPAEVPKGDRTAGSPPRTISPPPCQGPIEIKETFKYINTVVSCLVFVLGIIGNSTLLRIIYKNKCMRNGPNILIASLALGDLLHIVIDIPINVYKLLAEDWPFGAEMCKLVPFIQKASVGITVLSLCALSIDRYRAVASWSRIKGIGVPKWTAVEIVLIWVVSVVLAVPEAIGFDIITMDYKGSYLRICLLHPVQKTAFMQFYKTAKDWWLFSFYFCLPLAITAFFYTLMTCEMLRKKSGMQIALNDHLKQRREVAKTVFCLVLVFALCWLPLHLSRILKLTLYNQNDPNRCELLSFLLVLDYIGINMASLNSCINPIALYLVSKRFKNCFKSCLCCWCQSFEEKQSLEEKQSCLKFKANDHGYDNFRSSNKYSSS

Endothelin-1 receptor [7] = biological target: T1, Endothelin-1 receptor; assay: Displacement of [125I]endhothelin-1 from ETA receptor in rat MMQ cells Membrane at 25 degC incubated for 3 hrs by radioligand competition binding assay; assay type: cell membranes
[8] = Oral bioavailability in cynomolgus monkey at 5 mg/kg administered for 12 hrs by HPLC analysis; assay type: ADME, organism-based, Macaca fascicularis; conditions: in vivo
[9] = biological target: 5-hydroxytryptamine receptor 1B (Homo sapiens) (UniProt P28222); assay: Displacement of [3H]GR125743 from human recombinant 5-Hydroxytryptamine 1B at 10 uM incubated for 60 mins by radiometric based scintillation counter assay relative to control
[10] = biological target: Tumor necrosis factor receptor superfamily member 1A (Homo sapiens) (UniProt P19438); assay: Displacement of [125I]TNF-alpha from human tumor necrosis factor-alpha at 10 uM incubated for 120 mins by radiometric based scintillation counter assay relative to control
[11] = biological target: D(1B) dopamine receptor (Homo sapiens) (UniProt P21918); assay: Displacement of [3H]SCH 23390 from human recombinant dopamine D5 receptor at 10 uM incubated for 60 mins by radiometric based scintillation counter assay relative to control
[12] = biological target: Muscarinic acetylcholine receptor M2 (Homo sapiens) (UniProt P08172); assay: Displacement of [3H]AF-DX 384 from human recombinant muscarinic M2 receptor at 10 uM incubated for 60 mins by radiometric based scintillation counter assay relative to control
[13] = Half life in Sprague-Dawley rat at 10 mg/kg, po administered for 12 hrs by HPLC analysis; assay type: ADME, organism-based; conditions: in vivo
Homo sapiens = organism: Homo sapiens; assay: Displacement of [3H]Dofetilide from human recombinant voltage-dependent K+ channel at 10 uM incubated for 60 mins by radiometric based scintillation counter assay relative to control
[14] = biological target: T3, Endothelin-1 receptor (Rattus norvegicus) (UniProt P26684); assay: Antagonist activity at ETA receptor in rat MMQ cells assessed as inhibition of phosphatidylinositol hydrolysis in presence of myo-[3H] inositol by anion exchange chromatography; assay type: functional, cell-based
T3 sequence (whole entry): T1 sequence (P26684 whole entry)

[15] = biological target: Mu-type opioid receptor (Homo sapiens) (UniProt P35372); assay: Displacement of [3H]DAMGO from human recombinant mu-Opioid receptor at 10 uM incubated for 120 mins by radiometric based scintillation counter assay relative to control
[16] = biological target: Translocator protein (Homo sapiens) (UniProt P30536); assay: Displacement of [3H] PK 11195 from peripheral-type benzodiazepine (unknown origin) at 10 uM incubated for 15 mins by radiometric based scintillation counter assay relative to control
[17] = biological target: T3, Endothelin-1 receptor (Rattus norvegicus); assay: In vivo antagonist activity to ETA receptor in endothelin-1 induced Sprague-Dawley rat assessed as inhibition of transient depressor response at 100 mg/kg, po administered for 4 hrs; assay type: functional, organism-based

Chain of 5-hydroxytryptamine receptor 1B (Homo sapiens) (P28222 whole entry): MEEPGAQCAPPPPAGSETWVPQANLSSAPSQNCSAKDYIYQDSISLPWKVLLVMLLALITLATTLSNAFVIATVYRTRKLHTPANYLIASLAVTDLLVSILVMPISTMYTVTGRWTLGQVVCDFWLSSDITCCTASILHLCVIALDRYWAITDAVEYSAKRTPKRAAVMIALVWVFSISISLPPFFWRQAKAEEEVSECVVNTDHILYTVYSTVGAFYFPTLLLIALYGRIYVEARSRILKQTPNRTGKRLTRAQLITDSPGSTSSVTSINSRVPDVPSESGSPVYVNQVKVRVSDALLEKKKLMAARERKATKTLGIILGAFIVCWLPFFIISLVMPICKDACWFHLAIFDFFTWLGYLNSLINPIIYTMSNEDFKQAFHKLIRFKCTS
Chain of D(1B) dopamine receptor (Homo sapiens) (P21918 whole entry): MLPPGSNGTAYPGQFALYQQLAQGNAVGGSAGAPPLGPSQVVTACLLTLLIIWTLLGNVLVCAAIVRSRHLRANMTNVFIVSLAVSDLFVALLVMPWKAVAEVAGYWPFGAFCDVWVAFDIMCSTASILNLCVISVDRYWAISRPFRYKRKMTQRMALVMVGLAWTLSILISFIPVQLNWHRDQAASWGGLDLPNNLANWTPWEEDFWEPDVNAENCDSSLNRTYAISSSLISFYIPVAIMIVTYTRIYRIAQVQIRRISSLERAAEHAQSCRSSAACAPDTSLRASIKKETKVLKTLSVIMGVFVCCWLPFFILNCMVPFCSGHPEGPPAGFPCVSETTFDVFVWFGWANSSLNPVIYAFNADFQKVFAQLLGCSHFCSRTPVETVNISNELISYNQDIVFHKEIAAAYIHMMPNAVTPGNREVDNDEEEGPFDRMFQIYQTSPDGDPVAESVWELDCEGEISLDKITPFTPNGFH
Chain of Translocator protein (Homo sapiens) (P30536 whole entry): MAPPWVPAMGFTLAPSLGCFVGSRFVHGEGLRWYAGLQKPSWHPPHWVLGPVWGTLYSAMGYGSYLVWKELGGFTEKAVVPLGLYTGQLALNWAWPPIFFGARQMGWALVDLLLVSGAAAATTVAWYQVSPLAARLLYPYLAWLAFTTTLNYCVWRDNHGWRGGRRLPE
Chain of 5-hydroxytryptamine receptor 7 (Homo sapiens) (P34969 whole entry): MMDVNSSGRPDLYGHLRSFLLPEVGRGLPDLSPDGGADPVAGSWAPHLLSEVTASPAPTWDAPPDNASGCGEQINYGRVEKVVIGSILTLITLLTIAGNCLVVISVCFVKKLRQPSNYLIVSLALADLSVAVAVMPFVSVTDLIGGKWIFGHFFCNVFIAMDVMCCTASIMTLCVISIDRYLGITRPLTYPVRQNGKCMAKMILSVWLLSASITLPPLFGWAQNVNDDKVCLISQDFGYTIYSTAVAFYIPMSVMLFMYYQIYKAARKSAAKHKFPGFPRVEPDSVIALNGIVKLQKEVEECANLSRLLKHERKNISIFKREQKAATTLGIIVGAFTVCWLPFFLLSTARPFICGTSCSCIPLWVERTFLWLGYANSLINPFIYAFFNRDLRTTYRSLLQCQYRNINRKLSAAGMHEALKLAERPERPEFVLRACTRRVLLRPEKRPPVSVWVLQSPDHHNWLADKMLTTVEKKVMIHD
Chain of D(4) dopamine receptor (Homo sapiens) (P21917 whole entry): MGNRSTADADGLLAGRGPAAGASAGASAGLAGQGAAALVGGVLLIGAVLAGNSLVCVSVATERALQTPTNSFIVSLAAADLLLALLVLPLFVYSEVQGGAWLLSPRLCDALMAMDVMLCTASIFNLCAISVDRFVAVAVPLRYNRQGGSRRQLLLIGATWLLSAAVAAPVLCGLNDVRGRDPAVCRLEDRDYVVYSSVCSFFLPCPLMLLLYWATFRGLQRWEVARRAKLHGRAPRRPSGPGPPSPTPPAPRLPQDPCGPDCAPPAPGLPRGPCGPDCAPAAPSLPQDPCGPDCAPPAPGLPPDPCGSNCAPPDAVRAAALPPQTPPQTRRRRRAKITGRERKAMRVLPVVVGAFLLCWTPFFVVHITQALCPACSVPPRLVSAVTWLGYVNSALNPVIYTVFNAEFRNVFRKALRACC
Chain of Tumor necrosis factor receptor superfamily member 1A (Homo sapiens) (P19438 whole entry): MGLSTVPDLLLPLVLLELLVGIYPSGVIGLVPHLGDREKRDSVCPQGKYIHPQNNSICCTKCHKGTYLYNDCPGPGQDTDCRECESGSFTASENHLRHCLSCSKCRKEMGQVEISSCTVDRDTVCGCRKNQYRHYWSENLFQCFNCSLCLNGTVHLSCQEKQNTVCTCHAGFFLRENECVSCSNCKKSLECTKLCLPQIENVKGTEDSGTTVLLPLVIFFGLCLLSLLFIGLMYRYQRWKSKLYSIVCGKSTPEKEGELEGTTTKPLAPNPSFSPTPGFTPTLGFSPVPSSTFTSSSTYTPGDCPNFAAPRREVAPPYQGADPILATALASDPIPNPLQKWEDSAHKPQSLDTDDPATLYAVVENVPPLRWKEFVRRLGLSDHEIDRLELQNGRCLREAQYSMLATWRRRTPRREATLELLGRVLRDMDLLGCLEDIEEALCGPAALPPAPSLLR
Chain of Muscarinic acetylcholine receptor M2 (Homo sapiens) (P08172 whole entry): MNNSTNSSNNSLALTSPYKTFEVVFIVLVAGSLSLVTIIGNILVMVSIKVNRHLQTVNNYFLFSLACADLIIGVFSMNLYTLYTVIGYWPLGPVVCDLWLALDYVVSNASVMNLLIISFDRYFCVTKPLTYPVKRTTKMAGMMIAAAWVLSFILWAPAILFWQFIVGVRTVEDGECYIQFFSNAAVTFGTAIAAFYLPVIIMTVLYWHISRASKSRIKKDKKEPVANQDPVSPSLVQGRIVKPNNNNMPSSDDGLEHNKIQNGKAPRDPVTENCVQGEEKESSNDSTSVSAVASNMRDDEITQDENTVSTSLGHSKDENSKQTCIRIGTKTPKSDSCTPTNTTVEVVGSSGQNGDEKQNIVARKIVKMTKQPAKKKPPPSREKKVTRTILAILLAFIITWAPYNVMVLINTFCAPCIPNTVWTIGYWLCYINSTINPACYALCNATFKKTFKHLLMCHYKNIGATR
Chain of Substance-P receptor (Homo sapiens) (P25103 whole entry): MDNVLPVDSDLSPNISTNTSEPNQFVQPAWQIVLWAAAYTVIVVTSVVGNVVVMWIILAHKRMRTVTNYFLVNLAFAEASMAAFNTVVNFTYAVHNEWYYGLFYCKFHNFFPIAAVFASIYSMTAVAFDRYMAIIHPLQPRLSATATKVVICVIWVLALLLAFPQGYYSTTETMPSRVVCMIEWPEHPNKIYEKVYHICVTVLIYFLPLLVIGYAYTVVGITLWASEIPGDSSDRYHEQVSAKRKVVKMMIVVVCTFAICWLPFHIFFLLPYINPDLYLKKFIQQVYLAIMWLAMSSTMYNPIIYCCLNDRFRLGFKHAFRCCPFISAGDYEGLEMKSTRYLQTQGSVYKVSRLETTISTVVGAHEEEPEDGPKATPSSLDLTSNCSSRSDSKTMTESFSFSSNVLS
Chain of Mu-type opioid receptor (Homo sapiens) (P35372 whole entry): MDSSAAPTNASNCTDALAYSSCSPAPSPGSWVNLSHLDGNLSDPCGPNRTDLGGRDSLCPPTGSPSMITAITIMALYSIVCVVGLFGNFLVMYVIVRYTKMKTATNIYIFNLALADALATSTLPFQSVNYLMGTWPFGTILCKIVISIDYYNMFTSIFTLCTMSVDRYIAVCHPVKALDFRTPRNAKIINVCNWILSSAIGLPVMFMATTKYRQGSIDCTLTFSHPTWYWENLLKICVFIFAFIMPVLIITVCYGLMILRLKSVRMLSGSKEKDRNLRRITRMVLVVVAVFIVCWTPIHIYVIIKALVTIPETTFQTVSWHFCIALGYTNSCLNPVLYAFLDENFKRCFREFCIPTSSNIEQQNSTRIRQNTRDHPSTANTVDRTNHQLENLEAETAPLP
Chain of Prostacyclin receptor (Homo sapiens) (P43119 whole entry): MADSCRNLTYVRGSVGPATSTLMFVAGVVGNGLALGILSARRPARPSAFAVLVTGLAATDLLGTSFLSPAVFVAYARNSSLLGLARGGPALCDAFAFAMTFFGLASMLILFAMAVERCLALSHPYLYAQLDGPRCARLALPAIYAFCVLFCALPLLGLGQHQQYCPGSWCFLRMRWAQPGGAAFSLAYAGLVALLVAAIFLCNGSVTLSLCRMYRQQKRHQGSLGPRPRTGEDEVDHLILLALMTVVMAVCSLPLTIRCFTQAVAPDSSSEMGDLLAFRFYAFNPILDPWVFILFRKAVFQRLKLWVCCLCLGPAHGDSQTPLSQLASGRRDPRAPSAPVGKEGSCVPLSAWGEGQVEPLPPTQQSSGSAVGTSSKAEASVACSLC

Structure (SMILES): CCCCN(CCCC)C(=O)CN1[C@H](c2cc(OC)c3c(c2)OCO3)C[C@@H](C(=O)O)[C@@H]1CC(C)(C)CCC
- inhibition [1]: < 10%
- inhibition [2]: < 10%
- inhibition (Mus musculus): < 10%
- inhibition [3]: 15%
- Kb (Endothelin-1 receptor [4]): 5.13 nM
- inhibition (Rattus norvegicus): 18%
- inhibition [5]: < 10%
- Ki [6]: 13000 nM
- IC50 (Endothelin-1 receptor [7]): 0.56 nM
- bioavailability [8]: 18.1%
- inhibition [9]: < 10%
- inhibition [10]: < 10%
- inhibition [11]: < 10%
- inhibition [12]: < 10%
- half-life [13]: 2.5 h
- inhibition (Homo sapiens): < 10%
- Activity [14]: inactive
- inhibition [15]: 17%
- inhibition [16]: < 10%
- Activity [17]: Active
